Assay results reported in PubChem BioAssay AID256 (DTP/NCI, 2004).
Where “and” joins values, the source holds several entries; their conditions need not be identical. Equal entries are not always repeated. Toxic doses and inconclusive results are not listed. Rule for the calls: active = survival T/C of 150% or more; inactive = T/C below 125% in these data.

System: CD2F1 mice, L1210 leukemia ip, survival T/C
Assay: NCI In Vivo Anticancer Drug Screen. Data for tumor model L1210 Leukemia (intraperitoneal) in CD2F1 (CDF1) mice
Conditions: higher = longer survival
Procedure, shortened: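 Transplantable tumor in mice; compound-treated vs vehicle-treated groups. Read-out = treated/control ratio of the measured endpoint.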

[1] = endpoint: mean survival time, dose: 100.0 mg/kg/injection, schedule: Q01DX009 (ip), vehicle: saline with Tween-80
[2] = endpoint: mean survival time, dose: 100.0 mg/kg/injection, schedule: Q04DX003 (ip), vehicle: saline with Tween-80
[3] = endpoint: mean survival time, dose: 200.0 mg/kg/injection, schedule: Q01DX009 (ip), vehicle: saline with Tween-80
[4] = endpoint: mean survival time, dose: 200.0 mg/kg/injection, schedule: Q04DX003 (ip), vehicle: saline with Tween-80
[5] = endpoint: mean survival time, dose: 400.0 mg/kg/injection, schedule: Q04DX003 (ip), vehicle: saline with Tween-80
[6] = endpoint: mean survival time, dose: 200.0 mg/kg/injection, schedule: Q01DX009 (ip), vehicle: saline
[7] = endpoint: mean survival time, dose: 100.0 mg/kg/injection, schedule: Q01DX001 (ip), vehicle: saline with Tween-80
[8] = endpoint: mean survival time, dose: 200.0 mg/kg/injection, schedule: Q01DX001 (ip), vehicle: saline with Tween-80
[9] = endpoint: mean survival time, dose: 400.0 mg/kg/injection, schedule: Q01DX001 (ip), vehicle: saline with Tween-80
[10] = endpoint: mean survival time, dose: 50.0 mg/kg/injection, schedule: Q04DX002 (ip), vehicle: saline with Tween-80

Measured: T/C

[O-]c1cc2c3c(c1)c1cc4c(cc1c[n+]3C=C2)OCO4
active: endpoint: mean survival time, dose: 25.0 mg/kg/injection, schedule: Q01DX009 (ip), vehicle: water 150 % of control
inactive: endpoint: mean survival time, dose: 3.13 mg/kg/injection, schedule: Q01DX009 (ip), vehicle: other 100 % of control | endpoint: mean survival time, dose: 3.13 mg/kg/injection, schedule: Q01DX009 (ip), vehicle: water 114 % of control | endpoint: mean survival time, dose: 6.25 mg/kg/injection, schedule: Q01DX009 (ip), vehicle: other 109 % of control | endpoint: mean survival time, dose: 6.25 mg/kg/injection, schedule: Q01DX009 (ip), vehicle: water 120 % of control and 122 % of control | endpoint: mean survival time, dose: 12.5 mg/kg/injection, schedule: Q01DX009 (ip), vehicle: other 110 % of control | endpoint: mean survival time, dose: 12.5 mg/kg/injection, schedule: Q01DX009 (ip), vehicle: water 124 % of control | endpoint: mean survival time, dose: 25.0 mg/kg/injection, schedule: Q01DX009 (ip), vehicle: other 118 % of control | endpoint: mean survival time, dose: 50.0 mg/kg/injection, schedule: Q01DX009 (ip), vehicle: water 115 % of control | endpoint: mean survival time, dose: 100.0 mg/kg/injection, schedule: Q01DX009 (ip), vehicle: water 124 % of control

CN(CCl)S(=O)(=O)c1ccccc1
inactive: [1] 100 % of control | [2] 112 % of control | [3] 104 % of control | [4] 101 % of control | endpoint: mean survival time, dose: 400.0 mg/kg/injection, schedule: Q01DX009 (ip), vehicle: saline with Tween-80 102 % of control | [5] 100 % of control

C=Cc1cc(OC)c2c(c1)c(=O)oc1c2cc(OC)c2c(O)ccc(C3OC(C)C(O)C(C)(O)C3O)c21 (stereo not drawn)
active: endpoint: median survival time, dose: 80.0 mg/kg/injection, schedule: Q01DX009 (ip), vehicle: DMSO 155 % of control
inactive: endpoint: median survival time, dose: 5.0 mg/kg/injection, schedule: Q01DX009 (ip), vehicle: DMSO 107 % of control | endpoint: median survival time, dose: 10.0 mg/kg/injection, schedule: Q01DX009 (ip), vehicle: DMSO 116 % of control and 111 % of control | endpoint: median survival time, dose: 10.0 mg/kg/injection, schedule: Q01DX009 (ip), vehicle: other 118 % of control | endpoint: median survival time, dose: 20.0 mg/kg/injection, schedule: Q01DX009 (ip), vehicle: DMSO 116 % of control and 122 % of control | endpoint: median survival time, dose: 160.0 mg/kg/injection, schedule: Q01DX009 (ip), vehicle: DMSO 120 % of control | endpoint: median survival time, dose: 160.0 mg/kg/injection, schedule: Q01DX009 (ip), vehicle: other 113 % of control

CC1(C)N=C(N)N=C(N)N1c1ccc(CCC(=O)Nc2ccc(S(=O)(=O)F)cc2)cc1
inactive: endpoint: mean survival time, dose: 12.5 mg/kg/injection, schedule: Q01DX009 (ip), vehicle: saline with Tween-80 112 % of control | endpoint: mean survival time, dose: 25.0 mg/kg/injection, schedule: Q01DX009 (ip), vehicle: saline with Tween-80 117 % of control | endpoint: mean survival time, dose: 100.0 mg/kg/injection, schedule: Q01DX001 (ip), vehicle: saline 102 % of control | [1] 115 % of control | endpoint: mean survival time, dose: 200.0 mg/kg/injection, schedule: Q01DX001 (ip), vehicle: saline 111 % of control | [6] 123 % of control | endpoint: mean survival time, dose: 400.0 mg/kg/injection, schedule: Q01DX001 (ip), vehicle: saline 120 % of control | endpoint: mean survival time, dose: 400.0 mg/kg/injection, schedule: Q01DX009 (ip), vehicle: saline 123 % of control
active: endpoint: mean survival time, dose: 300.0 mg/kg/injection, schedule: Q01DX009 (ip), vehicle: saline 171 % of control

NC(N)=N/N=C/c1ccc(-c2ccccc2)cc1
inactive: endpoint: mean survival time, dose: 6.25 mg/kg/injection, schedule: Q01DX001 (ip), vehicle: saline with Tween-80 95 % of control | endpoint: mean survival time, dose: 12.5 mg/kg/injection, schedule: Q01DX001 (ip), vehicle: saline with Tween-80 109 % of control | endpoint: mean survival time, dose: 25.0 mg/kg/injection, schedule: Q01DX001 (ip), vehicle: saline with Tween-80 100 % of control

CCCCCCCCCCCCCCCCCCCOc1ccc(OCCCCCCCCCC)cc1
inactive: [7] 95 % of control | [8] 86 % of control | [9] 86 % of control

CC(C)CC(N)C(=O)NCCCCCCCCCCNC(=O)C(N)CC(C)C (stereo not drawn)
inactive: endpoint: mean survival time, dose: 6.25 mg/kg/injection, schedule: Q01DX010 (ip), vehicle: saline 100 % of control | endpoint: mean survival time, dose: 12.5 mg/kg/injection, schedule: Q01DX010 (ip), vehicle: saline 113 % of control | endpoint: mean survival time, dose: 25.0 mg/kg/injection, schedule: Q01DX010 (ip), vehicle: saline 97 % of control | endpoint: mean survival time, dose: 50.0 mg/kg/injection, schedule: Q01DX010 (ip), vehicle: saline 91 % of control

CN(C)c1ccc(/C=N/Nc2ncnc(Cl)c2N)cc1
inactive: endpoint: mean survival time, dose: 100.0 mg/kg/injection, schedule: Q01DX001 (ip), vehicle: carboxymethylcellulose (CMC) 98 % of control | endpoint: mean survival time, dose: 200.0 mg/kg/injection, schedule: Q01DX001 (ip), vehicle: carboxymethylcellulose (CMC) 91 % of control | endpoint: mean survival time, dose: 400.0 mg/kg/injection, schedule: Q01DX001 (ip), vehicle: carboxymethylcellulose (CMC) 95 % of control

COc1cc2cc(c1Cl)N(C)C(=O)/C=C/C1(C)OC1C(C)C1CC(O)(NC(=O)O1)C(OC)C=C/C=C(\C)C2 (stereo not drawn)
inactive: endpoint: mean survival time, dose: 1.3 micrograms/kg/injection, schedule: Q01DX009 (ip), vehicle: saline + alcohol 94 % of control | endpoint: mean survival time, dose: 2.5 micrograms/kg/injection, schedule: Q01DX009 (ip), vehicle: saline + alcohol 94 % of control | endpoint: mean survival time, dose: 5.0 micrograms/kg/injection, schedule: Q01DX009 (ip), vehicle: saline + alcohol 97 % of control | endpoint: mean survival time, dose: 10.0 micrograms/kg/injection, schedule: Q01DX009 (ip), vehicle: saline + alcohol 97 % of control

CCCn1c2cc([N+](=O)[O-])ccc2c(=O)c2ccc3ccccc3c21
inactive: endpoint: mean survival time, dose: 50.0 mg/kg/injection, schedule: Q01DX009 (ip), vehicle: saline with Tween-80 97 % of control | [1] 104 % of control | [3] 101 % of control

CN1CCSC1=S
inactive: endpoint: mean survival time, dose: 75.0 mg/kg/injection, schedule: Q01DX001 (ip), vehicle: other 92 % of control | endpoint: mean survival time, dose: 150.0 mg/kg/injection, schedule: Q01DX001 (ip), vehicle: other 96 % of control | endpoint: mean survival time, dose: 300.0 mg/kg/injection, schedule: Q01DX001 (ip), vehicle: other 104 % of control

CCOC(=O)c1cc(=O)c2ccccc2[nH]1
inactive: endpoint: mean survival time, dose: 50.0 mg/kg/injection, schedule: Q01DX001 (ip), vehicle: saline with Tween-80 93 % of control | [7] 98 % of control | [8] 90 % of control

O=C(c1ccc(-c2ccccc2)cc1)c1no[n+]([O-])c1C(=O)c1ccc(-c2ccccc2)cc1
inactive: [1] 96 % of control | [2] 86 % of control | [3] 93 % of control | [4] 98 % of control | [5] 88 % of control

C=CC(C)(C)S(=O)[O-].[C-]#[O+].[C-]#[O+].[C-]#[O+].[Mn].[c-]1[c-][c-][cH-][c-]1
inactive: endpoint: mean survival time, dose: 25.0 mg/kg/injection, schedule: Q04DX002 (ip), vehicle: saline with Tween-80 93 % of control | [10] 86 % of control | endpoint: mean survival time, dose: 100.0 mg/kg/injection, schedule: Q04DX002 (ip), vehicle: saline with Tween-80 93 % of control

CC(C)(O)C(=O)O
inactive: endpoint: mean survival time, dose: 50.0 mg/kg/injection, schedule: Q01DX009 (ip), vehicle: saline 96 % of control | endpoint: mean survival time, dose: 100.0 mg/kg/injection, schedule: Q01DX009 (ip), vehicle: saline 93 % of control | [6] 86 % of control

Cc1ccc(CCOS(=O)(=O)c2ccc(C)cc2)cc1
inactive: [7] 97 % of control | [8] 95 % of control | [9] 95 % of control

CCCCCCC[CH2][Sn]1([CH2]CCCCCCC)[O]OC(c2ccccc2)[O]1 (stereo not drawn)
inactive: [10] 92 % of control

CC(C)(C)c1nc2ccccc2p1-c1ccccc1 (stereo not drawn)
inactive: endpoint: mean survival time, dose: 100.0 mg/kg/injection, schedule: Q01DX001 (ip), vehicle: other 98 % of control | endpoint: mean survival time, dose: 200.0 mg/kg/injection, schedule: Q01DX001 (ip), vehicle: other 91 % of control | endpoint: mean survival time, dose: 400.0 mg/kg/injection, schedule: Q01DX001 (ip), vehicle: other 95 % of control

CC1(C)CC23C4COC(=O)C2CCC1C3CC4=O (stereo not drawn)
inactive: endpoint: mean survival time, dose: 3.12 mg/kg/injection, schedule: Q01DX009 (ip), vehicle: DMSO 95 % of control | endpoint: mean survival time, dose: 6.25 mg/kg/injection, schedule: Q01DX009 (ip), vehicle: DMSO 96 % of control and 98 % of control | endpoint: mean survival time, dose: 12.5 mg/kg/injection, schedule: Q01DX009 (ip), vehicle: DMSO 90 % of control and 94 % of control | endpoint: mean survival time, dose: 25.0 mg/kg/injection, schedule: Q01DX009 (ip), vehicle: DMSO 94 % of control and 98 % of control | endpoint: mean survival time, dose: 50.0 mg/kg/injection, schedule: Q01DX009 (ip), vehicle: DMSO 104 % of control | endpoint: mean survival time, dose: 100.0 mg/kg/injection, schedule: Q01DX009 (ip), vehicle: DMSO 93 % of control | endpoint: mean survival time, dose: 200.0 mg/kg/injection, schedule: Q01DX009 (ip), vehicle: DMSO 112 % of control
